The values that follow come from ChEMBL document CHEMBL1132813, “Design, synthesis and cytotoxic activities of naphthyl analogues of combretastatin A-4” (Bioorg Med Chem Lett, 2000).

Holding throughout (format): functional, cell-based
In one assay the test system is P388. As to the kind of experiment: The compound was evaluated for its cytotoxic potency against P388 cell line. The note with it: Mus musculus.
The next assay has as its system A549. As to the kind of experiment: The compound was evaluated for its cytotoxic potency against A-549 cell line. The note with it: Homo sapiens.
The subject of the next assay is SK-MEL-28. As to the kind of experiment: The compound was evaluated for its cytotoxic potency against MEL-28 cell line. The following applies: Homo sapiens.
Another assay concerns HT-29. As to the kind of experiment: The compound was evaluated for its cytotoxic potency against HT-29 cell line. The following applies: Homo sapiens.

In general, IC50 refers to the concentration that gives 50% inhibition. A low value points to greater potency.

`COc1cc(/C=C/c2ccc3ccccc3c2)cc(OC)c1OC`: the IC50 in the assay with P388, in the assay on A549, in the assay on SK-MEL-28 and in the assay with HT-29 was 398 nM each time.

As to `COc1cc(/C=C\c2ccc3ccccc3c2)cc(OC)c1OC` [NAPHTHYLCOMBRETASTATIN], the IC50 in the assay on P388, in the assay on A549, in the assay with SK-MEL-28 and in the assay with HT-29 was 15.8 nM each time.

Consider `COc1ccc(/C=C\c2ccc3ccccc3c2)cc1O`, for which the IC50 in the assay with P388, in the assay on A549, with SK-MEL-28 and with HT-29 was 39.8 nM in each case.

As to `COc1ccc(CCc2ccc3ccccc3c2)cc1O`, the IC50 in the assay on P388 was 5010 nM; with A549, 5010 nM; in the assay on SK-MEL-28 it was 5010 nM; in the assay with HT-29, 10000 nM.

`COc1cc(CCc2ccc3ccccc3c2)cc(OC)c1OC`: the IC50 in the assay with P388, in the assay on A549, in the assay with SK-MEL-28 and in the assay on HT-29 was 316 nM in each case.

With `COc1ccc(/C=C\c2cc(OC)c(OC)c(OC)c2)cc1O` [COMBRETASTATIN A4], the IC50 was 3.16 nM with P388, 3.16 nM in the assay with A549, 3.16 nM in the assay on SK-MEL-28 and 31.6 nM with HT-29.

As for `COc1ccc2[nH]c(-c3ccc4ccccc4c3)c(-c3cc(OC)c(OC)c(OC)c3)c2c1`, the IC50 in the assay with P388, in the assay with A549, with SK-MEL-28 and in the assay on HT-29 was 1260 nM throughout.

Take `COc1ccc(/C=C/c2ccc3ccccc3c2)cc1O`: the IC50 in the assay with P388, in the assay on A549, in the assay on SK-MEL-28 and with HT-29 was 3980 nM throughout.

In the case of `C(=C/c1ccc2ccccc2c1)/c1ccc2ccccc2c1`, the half-maximal inhibitory concentration (IC50) in the assay on P388, in the assay with A549, in the assay on SK-MEL-28 and in the assay on HT-29 was 3980 nM each time.
